Experimental findings from paper PMC3963471 (Bioorganic & medicinal chemistry letters, 2013) are described below.

In one assay the target is S1P2-R (Homo sapiens, UniProt O95136). Kind of assay: S1P2-R selectivity counter screen. As to conditions: at concentrations up to 50 µM. In kind it is cell-based. (In general: The purpose of a counterscreen is to sort out artefacts and off-target activity.)
For a further assay, the target named is T1, S1P4-R (Homo sapiens, UniProt O95977).
T1 sequence (O95977 1-384): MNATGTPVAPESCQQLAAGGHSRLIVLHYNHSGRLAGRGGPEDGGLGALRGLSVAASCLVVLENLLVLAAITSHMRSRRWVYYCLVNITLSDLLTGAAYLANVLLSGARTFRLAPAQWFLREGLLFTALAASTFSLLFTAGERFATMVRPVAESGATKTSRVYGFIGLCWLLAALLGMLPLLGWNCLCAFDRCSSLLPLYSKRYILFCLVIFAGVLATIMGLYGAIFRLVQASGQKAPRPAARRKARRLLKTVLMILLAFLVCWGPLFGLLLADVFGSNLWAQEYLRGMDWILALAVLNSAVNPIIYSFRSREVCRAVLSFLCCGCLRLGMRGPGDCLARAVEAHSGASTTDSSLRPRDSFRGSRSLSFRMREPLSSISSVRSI
Kind of assay: S1P4-R selectivity counter screen. The format is cell-based. Conditions: at concentrations up to 50 µM.

Assay [1] concerns the target T2, S1P3-R (Homo sapiens, UniProt Q99500). As to the kind of experiment: S1P3-R agonist assay, CHO NFAT-BLA reporter. Conditions: for loss in potency for the S1P3-R relative to hit 1a: less potent than 1a; for selectivity against S1P1,2,4,5-R subtypes (in words): S1P3-R agonist versus remaining subtypes; for loss of potency at S1P3-R relative to 5f: less potent than 5f. The format is cell-based.

In the next assay the target is S1P1-R (Homo sapiens, UniProt P21453). Kind of assay: S1P1-R agonist assay. The format is cell-based.
Assay [2] deals with Ricerca panel of off target proteins including GPCRs, enzymes and ion channels. As to the kind of experiment: Ricerca panel of off target proteins. Conditions: at 30 µM; targets other than those singled out.
The subject of a further assay is sodium channel site two. As to the kind of experiment: Ricerca panel: sodium channel site two. As to conditions: 30 µM; borderline inhibition. The format is binding.
Assay [3] addresses T2, S1P3-R. As to the kind of experiment: [33P]S1P competitive binding experiment in S1P3 jump-in CHO cells. As to conditions: 0.1 nM [33P]S1P; competitor 0.001 nM to 10 µM; 4 °C, 30 min.

T2 sequence (Q99500 whole entry): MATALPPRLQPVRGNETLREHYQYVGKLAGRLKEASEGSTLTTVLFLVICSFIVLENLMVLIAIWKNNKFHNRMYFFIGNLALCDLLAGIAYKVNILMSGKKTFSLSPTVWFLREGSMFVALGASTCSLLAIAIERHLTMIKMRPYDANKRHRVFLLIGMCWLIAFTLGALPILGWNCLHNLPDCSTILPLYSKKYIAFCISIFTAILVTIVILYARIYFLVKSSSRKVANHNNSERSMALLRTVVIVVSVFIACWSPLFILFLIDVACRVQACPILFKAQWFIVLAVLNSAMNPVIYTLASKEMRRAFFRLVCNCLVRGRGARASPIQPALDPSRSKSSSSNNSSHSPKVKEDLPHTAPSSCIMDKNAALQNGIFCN
Sequence of S1P1-R (P21453 whole entry): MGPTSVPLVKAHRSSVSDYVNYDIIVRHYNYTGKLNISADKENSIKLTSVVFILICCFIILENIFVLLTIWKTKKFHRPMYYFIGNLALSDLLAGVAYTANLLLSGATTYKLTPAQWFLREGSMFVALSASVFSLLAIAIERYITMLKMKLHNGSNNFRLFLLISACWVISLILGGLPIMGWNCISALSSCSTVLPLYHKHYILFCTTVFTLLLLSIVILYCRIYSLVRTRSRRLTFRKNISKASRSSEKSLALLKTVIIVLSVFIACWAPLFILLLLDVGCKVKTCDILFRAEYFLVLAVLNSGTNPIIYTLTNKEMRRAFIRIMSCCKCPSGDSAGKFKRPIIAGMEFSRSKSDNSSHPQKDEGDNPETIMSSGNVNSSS
Sequence of S1P2-R (O95136 whole entry): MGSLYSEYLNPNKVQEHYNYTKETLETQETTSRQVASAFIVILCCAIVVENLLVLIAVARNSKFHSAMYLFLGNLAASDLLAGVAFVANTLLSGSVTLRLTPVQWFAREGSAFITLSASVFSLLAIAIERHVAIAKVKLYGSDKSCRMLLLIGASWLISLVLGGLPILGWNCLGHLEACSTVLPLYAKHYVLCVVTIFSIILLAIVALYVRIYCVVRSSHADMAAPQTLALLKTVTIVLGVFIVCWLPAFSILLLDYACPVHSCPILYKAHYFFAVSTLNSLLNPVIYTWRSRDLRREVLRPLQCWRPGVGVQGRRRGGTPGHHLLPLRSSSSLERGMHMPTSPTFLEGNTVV

Take `CCCc1cc(C(=O)N(C2CCCCC2)C2CCCCC2)no1` [Compd 1a, N,N-dicyclohexyl-5-propylisoxazole-3-carboxamide]: on S1P2-R, the “agonist activity at S1P2-R” value is “no agonist activity”. Besides, the “agonist activity at S1P4-R” value on S1P4-R is “no agonist activity”.
Take `CCCc1cc(C(=O)N(C2CCCCC2)C2CCCC2)no1` [Compd 1b]: the “loss in potency for the S1P3-R relative to hit 1a” value at S1P3-R [1] is 18 fold. The “loss in potency for the S1P1-R relative to hit 1a” value at S1P1-R (less potent than 1a) is given as “three-fold”.
For the compound `CCCc1cc(C(=O)NC2CCCCC2)no1` [Compd 1c], on S1P3-R [1], the “activity at S1P3-R (in words)” value was “complete loss of potency”. Besides, the “activity at S1P1-R (in words)” value at S1P1-R is given as “complete loss of potency”.
As for `CCCc1cc(C(=O)N(c2ccccc2)C2CCCCC2)no1` [Compd 1d], the “activity at S1P3-R (in words)” value at S1P3-R [1] is “complete loss of potency”. Also, the “activity at S1P1-R (in words)” value at S1P1-R is given as “complete loss of potency”.
As for `CC(C)Cc1cc(C(=O)N(C2CCCCC2)C2CCCCC2)no1` [Compd 5a], the “loss in potency for the S1P3-R relative to hit 1a” value on S1P3-R [1] is recorded as “three-fold”. Also, the “less selective against the S1P1-R than the hit” value on S1P1-R (S1P3-R over S1P1-R, relative to 1a) was “four-fold”.
As for `CC(C)c1cc(C(=O)N(C2CCCCC2)C2CCCCC2)no1` [Compd 5b], on S1P3-R [1], the “loss in potency for the S1P3-R relative to hit 1a” value is given as “two-fold”.
`Cc1cc(C(=O)N(C2CCCCC2)C2CCCCC2)no1` [Compd 5c]: the “loss in potency for the S1P3-R relative to hit 1a” value at S1P3-R [1] is 15 fold.
As for `O=C(c1cc(C2CCCCC2)on1)N(C1CCCCC1)C1CCCCC1` [Compd 5d], at S1P1-R, the “activity at S1P1-R (in words)” value is “inactive”.
Same read-out and setting: the same measure for `O=C(c1cc(C2CCCC2)on1)N(C1CCCCC1)C1CCCCC1` [Compd 5e]: “inactive”.
As for `O=C(c1cc(C2CC2)on1)N(C1CCCCC1)C1CCCCC1` [Compd 5f, N,N-dicyclohexyl-5-cyclopropylisoxazole-3-carboxamide], the “selectivity against S1P1,2,4,5-R subtypes (in words)” value at S1P3-R [1] was “exquisitely selective”. Further, the “more potent than the hit at S1P3-R” value on S1P3-R [1] (relative to 1a) is recorded as “four-fold”. Besides, in assay [2], the “stimulation/inhibition of panel targets” value is on record as less than 50%. For the same compound, the “inhibition of sodium channel site two” value in the assay with sodium channel site two is reported as not below 50%. In addition, the “competition with [33P]S1P for the S1P3-R binding pocket” value on S1P3-R [3] was “does not compete”.
On to `COc1ccc(-c2cc(C(=O)N(C3CCCCC3)C3CCCCC3)no2)cc1` [Compd 5h], for which the “selectivity against the S1P1-R” value on S1P1-R (S1P3-R over S1P1-R) was “less than three-fold”.
Regarding `CCOc1ccc(-c2cc(C(=O)N(C3CCCCC3)C3CCCCC3)no2)cc1OCC` [Compd 5i], the “loss in potency for the S1P3-R relative to hit 1a” value at S1P3-R [1] is 18 fold.
Turning to `O=C(NC1CCCCC1)c1cc(C2CC2)on1` [Compd 7a], the “activity at S1P3-R (in words)” value at S1P3-R [1] was “complete loss of activity”.
On to `O=C(c1cc(C2CC2)on1)N(C1CCCCC1)C1CCCC1` [Compd 7b], for which the “loss of potency at S1P3-R relative to 5f” value on S1P3-R [1] is 16 fold.
As to `O=C(c1cc(C2CC2)on1)N(C1CCCCC1)C1CCOCC1` [Compd 7c], the “loss of potency at S1P3-R relative to 5f” value on S1P3-R [1] came out at 33 fold.
On the same count and under the same terms, the same measure for `O=C(c1cc(C2CC2)on1)N(CC1CCCCC1)C1CCCCC1` [Compd 7d]: 32 fold.
For the compound `CC1CCCCC1N(C(=O)c1cc(C2CC2)on1)C1CCCCC1` (centres unmarked) [Compd 7e], at S1P3-R [1], the “selectivity against S1P1,2,4,5-R subtypes (in words)” value is given as “exquisitely selective” and the “loss of potency at S1P3-R relative to 5f” value is “three-fold”.
On the same counts, the results for `CC1CCCCC1N(C(=O)c1cc(C2CC2)on1)C1CCCCC1C` (centres unmarked) [Compd 7f] are “exquisitely selective” and “two-fold”.
In the case of `CC1CCCCC1N(C(=O)c1cc(C2CC2)on1)C1CCCCCC1` (centres unmarked) [Compd 7g], the “less potent than 7e at S1P3-R” value at S1P3-R [1] (relative to 7e) is “almost two-fold”.
Take `O=C(c1cc(C2CC2)on1)N(C1CCCCCC1)C1CCCC1` [Compd 7j]: the “loss of potency at S1P3-R relative to 5f” value at S1P3-R [1] came out at 26 fold.
For the compound `O=C(c1cc(C2CC2)on1)N(Cc1ccccc1)c1ccccc1` [Compd 7k], the “activity at S1P3-R (in words)” value on S1P3-R [1] is “drastic loss in potency”.
Still for that read-out and setting: the same measure for `O=C(c1cc(C2CC2)on1)N(Cc1ccccc1)c1ccccn1` [Compd 7l]: “drastic loss in potency”; for `O=C(c1coc(C2CC2)n1)N(C1CCCCC1)C1CCCCC1` [Compd 9a]: “inactive”.
As to `O=C(c1ccc(C2CC2)o1)N(C1CCCCC1)C1CCCCC1` [Compd 9b], on S1P3-R [1], the “activity at S1P3-R (in words)” value was “inactive”. Moreover, on S1P1-R, the “activity at S1P1-R (in words)” value was “micromolar activity”.
As for `O=C(c1noc2ccccc12)N(C1CCCCC1)C1CCCCC1` [Compd 9c], the “activity at S1P3-R (in words)” value on S1P3-R [1] was “inactive”.
For the compound `CCCCCCCCCCCCC/C=C/[C@@H](O)[C@@H](N)COP(=O)(O)O` [S1P, Sphingosine-1-phosphate, reference compound], at S1P3-R [3], the “competition with [33P]S1P for the S1P3-R binding pocket” value was “competes”.
